Reference: patent US20260365682A1, “MODULATORS OF TNF-ALPHA ACTIVITY” (Forward Therapeutics, Inc., priority 2022, published 2026)

Target: T1, TNF-α (Homo sapiens, UniProt P01375)
T1 construct: purchased R&D 210-TA-020/CF
Test: TNF-α Induced HEK Blue Cellular Assay (secreted alkaline phosphatase expression, QUANTI-Blue)
Type: cell-based
Conditions: HEK Blue TNFα reporter cells; TNF-α 100 μg/ml; 24 hrs at 37° C.; inhibition of secreted alkaline phosphatase; read-out: IC50 value
Description: TNF-α Induced HEK Blue Cellular Assay
Test articles were diluted in DMSO and serially diluted into 384 well assay plate (Corning 3765), at final concentrations ranging from […] to 0.5 nM. HEK Blue™ TNFα reporter cells were added at a final density of 10,000 cell per well in assay media [DMEM (Gibco, cat #21063-029), 10% fetal bovine serum (ExcelBio, cat #FND500), 1% Penicillin-Streptomycin (Solarbio, cat #P1400-100]. TNF-α (R&D 210-TA-020/CF) was then added to the assay plate at a final concentration of […]. This plate was then incubated for 24 hrs at 37° C. and 5% CO2. Secreted alkaline phosphatase expression was then measured using QUANTI-Blue™ (Invivogen), according to manufacturer instructions and read on an Envision microplate reader at 620 nm.
Inhibition data for test compound over a range of concentration was plotted as percentage inhibition of the test compound (100%=maximum inhibition). IC50 values were determined after correcting for background [(sample read-mean of low control)/(mean of high control-mean of low control)] whereby the low control is DMSO without stimulation and high control is DMSO with stimulation. The IC50 is defined as the concentration of test compound which produces 50% inhibition and was quantified using the 4 parameter logistic equation to fit the data.

T1 sequence (P01375 77-233 limits assumed): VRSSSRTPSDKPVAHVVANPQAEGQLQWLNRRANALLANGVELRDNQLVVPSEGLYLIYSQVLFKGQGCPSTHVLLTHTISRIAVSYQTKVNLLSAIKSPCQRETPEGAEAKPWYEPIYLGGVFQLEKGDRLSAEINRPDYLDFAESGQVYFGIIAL

Row | SMILES | IC50 [µM]
1 | [2H]C([2H])([2H])N1C(=O)c2cccc(OC(F)F)c2[C@H]2C[C@@H]1c1nc3ccc(C#CCCN4CCOCC4)cc3n12 [Example 101, (7R,14R)-1-(difluoromethoxy)-6-(methyl-d3)-11-(4-morpholinobut-1-yn-1-yl)-6,7-dihydro-7,14-methanobenzo[f]benzo[4,5]imidazo[1,2-a][1,4]diazocin-5(14H)-one] | < 0.1
2 | [2H]C([2H])([2H])N1C(=O)c2cccc(OC(F)F)c2[C@H]2C[C@@H]1c1nc3ccc(C#CC4CN(C(=O)C5(O)CC5)C4)cc3n12 [Example 195, (7R,14R)-1-(difluoromethoxy)-11-((1-(1-hydroxycyclopropane-1-carbonyl)azetidin-3-yl)ethynyl)-6-(methyl-d3)-6,7-dihydro-7,14-methanobenzo[f]benzo[4,5]imidazo[1,2-a][1,4]diazocin-5(14H)-one] | < 0.1
3 | [2H]C([2H])([2H])N1C(=O)c2cccc(OC(F)F)c2[C@H]2C[C@@H]1c1nc3ccc(C#C[C@@H](C)COC)cc3n12 [Example 147, (7R,14R)-1-(difluoromethoxy)-11-((R)-4-methoxy-3-methylbut-1-yn-1-yl)-6-(methyl-d3)-6,7-dihydro-7,14-methanobenzo[f]benzo[4,5]imidazo[1,2-a][1,4]diazocin-5(14H)-one] | < 0.1
4 | [2H]C([2H])([2H])N1C(=O)c2cccc(OC(F)F)c2[C@H]2C[C@@H]1c1nc3ccc(C#Cc4nnc(C)s4)cc3n12 [Example 29, (7R,14R)-1-(difluoromethoxy)-6-(methyl-d3)-11-((5-methyl-1,3,4-thiadiazol-2-yl)ethynyl)-6,7-dihydro-7,14-methanobenzo[f]benzo[4,5]imidazo[1,2-a][1,4]diazocin-5(14H)-one] | < 0.1
5 | [2H]C([2H])([2H])N1C(=O)c2cccc(OC(F)F)c2[C@H]2C[C@@H]1c1nc3ccc(C#CC4CCN(C5CC5)C4)cc3n12 (stereo partly drawn) [Example 234, (7R,14R)-11-((1-cyclopropylpyrrolidin-3-yl)ethynyl)-1-(difluoromethoxy)-6-(methyl-d3)-6,7-dihydro-7,14-methanobenzo[f]benzo[4,5]imidazo[1,2-a][1,4]diazocin-5(14H)-one] | < 0.1
6 | [2H]C([2H])([2H])N1C(=O)c2cccc(OC(F)F)c2[C@H]2C[C@@H]1c1nc3ccc(C#CC4CCN(C(=O)C5CC5)C4)cc3n12 (stereo partly drawn) [Example 201, (7R,14R)-11-((1-(cyclopropanecarbonyl)pyrrolidin-3-yl)ethynyl)-1-(difluoromethoxy)-6-(methyl-d3)-6,7-dihydro-7,14-methanobenzo[f]benzo[4,5]imidazo[1,2-a][1,4]diazocin-5(14H)-one] | 10 to 30
7 | [2H]C([2H])([2H])N1C(=O)c2cccc(OC(F)F)c2[C@H]2C[C@@H]1c1nc3ccc(C#CCCN(C)C)cc3n12 [Example 163, (7R,14R)-1-(difluoromethoxy)-11-(4-(dimethylamino)but-1-yn-1-yl)-6-(methyl-d3)-6,7-dihydro-7,14-methanobenzo[f]benzo[4,5]imidazo[1,2-a][1,4]diazocin-5(14H)-one] | 0.1 to 1
8 | [2H]C([2H])([2H])N1C(=O)c2cccc(OC(F)F)c2[C@H]2C[C@@H]1c1nc3ccc(C#CC4(CO)CC4)cc3n12 [Example 130, (7R,14R)-1-(difluoromethoxy)-11-((1-(hydroxymethyl)cyclopropyl)ethynyl)-6-(methyl-d3)-6,7-dihydro-7,14-methanobenzo[f]benzo[4,5]imidazo[1,2-a][1,4]diazocin-5(14H)-one] | 0.1 to 1
9 | [2H]C([2H])([2H])N1C(=O)c2cccc(OC(F)F)c2[C@H]2C[C@@H]1c1nc3ccc(C#CC4CN(C(=O)C(C)(C)C)C4)cc3n12 [Example 125, (7R,14R)-1-(difluoromethoxy)-6-(methyl-d3)-11-((1-pivaloylazetidin-3-yl)ethynyl)-6,7-dihydro-7,14-methanobenzo[f]benzo[4,5]imidazo[1,2-a][1,4]diazocin-5(14H)-one] | < 0.1
10 | [2H]C([2H])([2H])N1C(=O)c2cccc(OC(F)F)c2[C@H]2C[C@@H]1c1nc3ccc(C#CC4CN(C(=O)C(C)(C)O)C4)cc3n12 [Example 126, (7R,14R)-1-(difluoromethoxy)-11-((1-(2-hydroxy-2-methylpropanoyl)azetidin-3-yl)ethynyl)-6-(methyl-d3)-6,7-dihydro-7,14-methanobenzo[f]benzo[4,5]imidazo[1,2-a][1,4]diazocin-5(14H)-one] | < 0.1
11 | [2H]C([2H])([2H])N1C(=O)c2cccc(OC(F)F)c2[C@H]2C[C@@H]1c1nc3ccc(C#CC4CN(C5COC5)C4(C)C)cc3n12 (stereo partly drawn) [Example 256, (7R,14R)-1-(difluoromethoxy)-11-((2,2-dimethyl-1-(oxetan-3-yl)azetidin-3-yl)ethynyl)-6-(methyl-d3)-6,7-dihydro-7,14-methanobenzo[f]benzo[4,5]imidazo[1,2-a][1,4]diazocin-5(14H)-one] | < 0.1
12 | [2H]C([2H])([2H])N1C(=O)c2cccc(OC(F)F)c2[C@H]2C[C@@H]1c1nc3ccc(C#CCOCC(C)O)cc3n12 (stereo partly drawn) [Example 73, (7R,14R)-1-(difluoromethoxy)-11-(3-(2-hydroxypropoxy)prop-1-yn-1-yl)-6-(methyl-d3)-6,7-dihydro-7,14-methanobenzo[f]benzo[4,5]imidazo[1,2-a][1,4]diazocin-5(14H)-one] | < 0.1
13 | [2H]C([2H])([2H])N1C(=O)c2cccc(OC(F)F)c2[C@H]2C[C@@H]1c1nc3ccc(C#CC(=O)O)cc3n12 [Example 37, 3-((7R,14R)-1-(difluoromethoxy)-6-(methyl-d3)-5-oxo-5,6,7,14-tetrahydro-7,14-methanobenzo[f]benzo[4,5]imidazo[1,2-a][1,4]diazocin-11-yl)propiolic Acid] | < 0.1
14 | [2H]C([2H])([2H])N1C(=O)c2cccc(OC(F)F)c2[C@H]2C[C@@H]1c1nc3ccc(C#CC4COC4)cc3n12 [Example 80, (7R,14R)-1-(difluoromethoxy)-6-(methyl-d3)-11-(oxetan-3-ylethynyl)-6,7-dihydro-7,14-methanobenzo[f]benzo[4,5]imidazo[1,2-a][1,4]diazocin-5(14H)-one] | < 0.1
15 | [2H]C([2H])([2H])N1C(=O)c2cccc(OC(F)F)c2[C@H]2C[C@@H]1c1nc3ccc(C#CC4(O)CN(C5COC5)C4)cc3n12 [Example 250, (7R,14R)-1-(difluoromethoxy)-11-((3-hydroxy-1-(oxetan-3-yl)azetidin-3-yl)ethynyl)-6-(methyl-d3)-6,7-dihydro-7,14-methanobenzo[f]benzo[4,5]imidazo[1,2-a][1,4]diazocin-5(14H)-one] | < 0.1
16 | [2H]C([2H])([2H])N1C(=O)c2cccc(OC(F)F)c2[C@H]2C[C@@H]1c1nc3ccc(C#CC(O)CC(C)(C)O)cc3n12 (single isomer, unassigned) [Example 222, (7R,14R)-1-(difluoromethoxy)-11-((R or S)-3,5-dihydroxy-5-methylhex-1-yn-1-yl)-6-(methyl-d3)-6,7-dihydro-7,14-methanobenzo[f]benzo[4,5]imidazo[1,2-a][1,4]diazocin-5(14H)-one] | < 0.1
17 | [2H]C([2H])([2H])N1C(=O)c2cccc(OC(F)F)c2[C@H]2C[C@@H]1c1nc3ccc(C#CCCOC)cc3n12 [Example 77, (7R,14R)-1-(difluoromethoxy)-11-(4-methoxybut-1-yn-1-yl)-6-(methyl-d3)-6,7-dihydro-7,14-methanobenzo[f]benzo[4,5]imidazo[1,2-a][1,4]diazocin-5(14H)-one] | < 0.1
18 | [2H]C([2H])([2H])N1C(=O)c2cccc(OC(F)F)c2[C@H]2C[C@@H]1c1nc3ccc(C#CC(F)F)cc3n12 [Example 247, (7R,14R)-1-(difluoromethoxy)-11-(3,3-difluoroprop-1-yn-1-yl)-6-(methyl-d3)-6,7-dihydro-7,14-methanobenzo[f]benzo[4,5]imidazo[1,2-a][1,4]diazocin-5(14H)-one] | < 0.1
19 | [2H]C([2H])([2H])N1C(=O)c2cccc(OC(F)F)c2[C@H]2C[C@@H]1c1nc3ccc(C#CC4(O)CCC4)cc3n12 [Example 35, (7R,14R)-1-(difluoromethoxy)-11-((1-hydroxycyclobutyl)ethynyl)-6-(methyl-d3)-6,7-dihydro-7,14-methanobenzo[f]benzo[4,5]imidazo[1,2-a][1,4]diazocin-5(14H)-one] | 10 to 30
20 | [2H]C([2H])([2H])N1C(=O)c2cccc(OC(F)F)c2[C@H]2C[C@@H]1c1nc3ccc(C#CC4(C)COC4)c(F)c3n12 [Example 146, (7R,14R)-1-(difluoromethoxy)-12-fluoro-6-(methyl-d3)-11-((3-methyloxetan-3-yl)ethynyl)-6,7-dihydro-7,14-methanobenzo[f]benzo[4,5]imidazo[1,2-a][1,4]diazocin-5(14H)-one] | 0.1 to 1
21 | [2H]C([2H])([2H])N1C(=O)c2cccc(OC(F)F)c2[C@H]2C[C@@H]1c1nc3ccc(C#CC4CN(CC(F)(F)F)C4)cc3n12 [Example 124, (7R,14R)-1-(difluoromethoxy)-6-(methyl-d3)-11-((1-(2,2,2-trifluoroethyl)azetidin-3-yl)ethynyl)-6,7-dihydro-7,14-methanobenzo[f]benzo[4,5]imidazo[1,2-a][1,4]diazocin-5(14H)-one] | < 0.1
